Experimental findings from article PMC10084949, “Peptide Variant Detection by a Living Yeast Biosensor via an Epitope-Selective Protease” (Biodesign Research, 2023) are described below.

Structures are written as SMILES. pEC50: −log10 of the molar value.

In general, pEC50 refers to the negative decadic logarithm of the EC50, by convention in mol/L.

One assay addresses T1, ScSte2 + ScBar1 (Saccharomyces cerevisiae, UniProt D6VTK4).
T1 construct: we cloned codon-optimized open reading frames (ORFs) of all 5 proteases and GPCRs; expressed in transfected cells; host or cells: S. cerevisiae yBB01 (from yTC370; pTDH3-ScSTE2, two pCCW12-ScBAR1 cassettes, genome-integrated)
In words: Dose-response activation of ScSte2 biosensor strain secreting ScBar1 (two copies, yBB01), fluorescent readout. Format: cell-based. The note with it: SEM. On the procedure:
(§1) Glycerol stocked strains were streaked out on YPD plate and incubated for 2 days. Three colonies were picked, replated on YPD plate, incubated for 1 day, and then stored at 4 °C. For activation assays, a small scoop of yeast patch from the 3 colonies was resuspended in ~4 ml of YPD medium and incubated overnight. Overnight cells were seeded at an optical density at 600 nm (OD600) of 0.15 (as measured in 96-well plate at 200-μl volume) in SC/Glc medium after washing twice with sterile Mili-Q H2O. GPCR activity and response to increasing concentrations of synthetic peptide ligands were measured in strains carrying appropriate genome-integrated components in 96-well microtiter plates in 200-μl total volume and cultured at 30 °C and 800 rpm, unless otherwise stated. All measurements were performed in biological triplicate. Culture turbidity (OD600) and fluorescence for ymTurquoise2 (excitation, 439 nm; emission, 475 nm; gain, 75) were measured after 0 and 8 h using an Infinite 200 Pro plate reader (Tecan). Dose–response curve was measured at 11 different concentrations of the appropriate synthetic peptide ligand with a constant dilution factor and a no-peptide, H2O control. The absorbance at 600 nm normalized fluorescence values and log10-transformed peptide concentrations were fit to a 4-parameter nonlinear regression model using Prism (GraphPad) to extract GPCR-specific values for basal activation, maximal activation, EC50, and the Hill coefficient.
(§2) Statistical tests of all experiments were performed using GraphPad Prism version 7 and are detailed within the legend of each figure. In all figures, the data points represent means ± SD of biological triplicates. Curves fitted to all dose–response data were fitted in Prism 7 using the nonlinear regression: variable slope (4-parameter) curve fitting.
(§3) Changes in EC50 and activation span (maximal fluorescence activation − basal fluorescence activation) due to difference in variant peptide sequences from the wild-type peptides are depicted as ΔlogEC50 from wild-type Pep (variant peptide logEC50 − wild-type peptide logEC50) and ΔSpan from wild-type Pep (variant peptide Span – wild-type peptide Span), respectively. Apparent shift in EC50 and change in activation span in both wild-type and variant peptides due to protease expression are depicted as ΔlogEC50 with protease (peptide logEC50 with protease − peptide logEC50 without protease) and ΔSpan with protease (peptide Span with protease − peptide Span without protease), respectively.

The next assay has as its target T2, ScSte2 (Saccharomyces cerevisiae, UniProt D6VTK4).
T2 construct: we cloned codon-optimized open reading frames (ORFs) of all 5 proteases and GPCRs; expressed in transfected cells; host or cells: S. cerevisiae yTC391 (from yTC370, native STE2 deleted; pTDH3-ScSTE2 genome-integrated)
Kind of assay: cell-based. Particulars: SEM. On the procedure: as §1, §2, §3

T1 sequence (D6VTK4 whole entry): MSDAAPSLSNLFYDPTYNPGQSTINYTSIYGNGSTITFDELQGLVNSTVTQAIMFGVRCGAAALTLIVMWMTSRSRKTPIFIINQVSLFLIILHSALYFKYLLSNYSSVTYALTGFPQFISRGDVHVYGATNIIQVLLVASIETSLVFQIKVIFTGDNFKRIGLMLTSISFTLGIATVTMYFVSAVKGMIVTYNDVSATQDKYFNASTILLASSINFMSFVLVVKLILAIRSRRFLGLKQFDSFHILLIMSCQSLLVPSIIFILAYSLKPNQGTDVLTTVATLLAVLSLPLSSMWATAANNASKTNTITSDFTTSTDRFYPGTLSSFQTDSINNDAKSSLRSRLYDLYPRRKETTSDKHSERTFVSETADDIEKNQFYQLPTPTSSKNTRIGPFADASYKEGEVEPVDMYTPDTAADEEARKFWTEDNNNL
T2 sequence (D6VTK4 whole entry): as above

For `CSCC[C@H](NC(=O)[C@@H]1CCCN1C(=O)[C@H](CCC(N)=O)NC(=O)CNC(=O)[C@@H]1CCCN1C(=O)[C@H](CCCCN)NC(=O)[C@H](CC(C)C)NC(=O)[C@H](CCC(N)=O)NC(=O)[C@H](CC(C)C)NC(=O)[C@H](Cc1c[nH]c2ccccc12)NC(=O)[C@H](Cc1c[nH]cn1)NC(=O)[C@H](C)N)C(=O)N[C@@H](Cc1ccc(O)cc1)C(=O)O` [ScPep1A], the pEC50 at ScSte2 + ScBar1 was 5.90; on ScSte2, 7.40.
Turning to `CSCC[C@H](NC(=O)[C@@H]1CCCN1C(=O)[C@H](CCC(N)=O)NC(=O)CNC(=O)[C@@H]1CCCN1C(=O)[C@H](CCCCN)NC(=O)[C@H](CC(C)C)NC(=O)[C@H](CCC(N)=O)NC(=O)[C@H](CC(C)C)NC(=O)[C@H](Cc1c[nH]c2ccccc12)NC(=O)[C@H](C)NC(=O)[C@@H](N)Cc1c[nH]c2ccccc12)C(=O)N[C@@H](Cc1ccc(O)cc1)C(=O)O` [ScPep2A], the pEC50 at ScSte2 + ScBar1 is 5.00; on ScSte2, 7.10.
In the case of `CSCC[C@H](NC(=O)[C@@H]1CCCN1C(=O)[C@H](CCC(N)=O)NC(=O)CNC(=O)[C@@H]1CCCN1C(=O)[C@H](CCCCN)NC(=O)[C@H](CC(C)C)NC(=O)[C@H](CCC(N)=O)NC(=O)[C@H](CC(C)C)NC(=O)[C@H](C)NC(=O)[C@H](Cc1c[nH]cn1)NC(=O)[C@@H](N)Cc1c[nH]c2ccccc12)C(=O)N[C@@H](Cc1ccc(O)cc1)C(=O)O` [ScPep3A], the negative logarithm of the EC50 (pEC50) on ScSte2 + ScBar1 is 4.60; on ScSte2 it was 7.20.
Consider `CSCC[C@H](NC(=O)[C@@H]1CCCN1C(=O)[C@H](CCC(N)=O)NC(=O)CNC(=O)[C@@H]1CCCN1C(=O)[C@H](CCCCN)NC(=O)[C@H](CC(C)C)NC(=O)[C@H](CCC(N)=O)NC(=O)[C@H](C)NC(=O)[C@H](Cc1c[nH]c2ccccc12)NC(=O)[C@H](Cc1c[nH]cn1)NC(=O)[C@@H](N)Cc1c[nH]c2ccccc12)C(=O)N[C@@H](Cc1ccc(O)cc1)C(=O)O` [ScPep4A], for which the negative logarithm of the EC50 (pEC50) at ScSte2 + ScBar1 is 5.40.
`CSCC[C@H](NC(=O)[C@@H]1CCCN1C(=O)[C@H](CCC(N)=O)NC(=O)CNC(=O)[C@@H]1CCCN1C(=O)[C@H](CCCCN)NC(=O)[C@H](CC(C)C)NC(=O)[C@H](C)NC(=O)[C@H](CC(C)C)NC(=O)[C@H](Cc1c[nH]c2ccccc12)NC(=O)[C@H](Cc1c[nH]cn1)NC(=O)[C@@H](N)Cc1c[nH]c2ccccc12)C(=O)N[C@@H](Cc1ccc(O)cc1)C(=O)O` [ScPep5A]: the pEC50 at ScSte2 + ScBar1 was 6.30; on ScSte2, 7.30.
With `CSCC[C@H](NC(=O)[C@@H]1CCCN1C(=O)[C@H](CCC(N)=O)NC(=O)CNC(=O)[C@@H]1CCCN1C(=O)[C@H](CCCCN)NC(=O)[C@H](C)NC(=O)[C@H](CCC(N)=O)NC(=O)[C@H](CC(C)C)NC(=O)[C@H](Cc1c[nH]c2ccccc12)NC(=O)[C@H](Cc1c[nH]cn1)NC(=O)[C@@H](N)Cc1c[nH]c2ccccc12)C(=O)N[C@@H](Cc1ccc(O)cc1)C(=O)O` [ScPep6A], the negative logarithm of the EC50 (pEC50) at ScSte2 + ScBar1 was 5.50; on ScSte2 it was 7.10.
In the same order, the values of `CSCC[C@H](NC(=O)[C@@H]1CCCN1C(=O)[C@H](CCC(N)=O)NC(=O)CNC(=O)[C@@H]1CCCN1C(=O)[C@H](C)NC(=O)[C@H](CC(C)C)NC(=O)[C@H](CCC(N)=O)NC(=O)[C@H](CC(C)C)NC(=O)[C@H](Cc1c[nH]c2ccccc12)NC(=O)[C@H](Cc1c[nH]cn1)NC(=O)[C@@H](N)Cc1c[nH]c2ccccc12)C(=O)N[C@@H](Cc1ccc(O)cc1)C(=O)O` [ScPep7A] are 5.40 and 6.90.
Regarding `CSCC[C@H](NC(=O)[C@@H]1CCCN1C(=O)[C@H](CCC(N)=O)NC(=O)CNC(=O)[C@H](C)NC(=O)[C@H](CCCCN)NC(=O)[C@H](CC(C)C)NC(=O)[C@H](CCC(N)=O)NC(=O)[C@H](CC(C)C)NC(=O)[C@H](Cc1c[nH]c2ccccc12)NC(=O)[C@H](Cc1c[nH]cn1)NC(=O)[C@@H](N)Cc1c[nH]c2ccccc12)C(=O)N[C@@H](Cc1ccc(O)cc1)C(=O)O` [ScPep8A], the pEC50 is 5.60 on ScSte2 + ScBar1 and 7.10 at ScSte2.
